The values below come from patent US4372948A, “Derivative of saccharide and physiologically active agent containing the same” (Kureha Kagaku Kogyo Kabushiki Kaisha, priority 1980, dated 1983).

Each structure is given as a SMILES string.

One data set concerns carrageenin edema. Nature of the data set: Anti-Carrageenin edema activity. It is filed as in vivo, rat. As to conditions: oral, 1000 mg/kg once; 1000 mg/kg. The method, boiled down: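 Rats (10 per group) given compound orally once at 1000 mg/kg in distilled water, then 0.1 ml 1% carrageenin injected into right hind foot pad. Foot pad thickness measured at intervals; inhibition rate (%) = (1−T/C)×100 versus carrageenin-only animals.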

A further data set has as its system beta-lipoprotein. In words: Anti-hyperlipemia activity, beta-lipoprotein in blood. It counts as in vivo, rabbit (Japanese white male). As to conditions: oral, 300 mg/kg once, 300 mg/kg. The method, boiled down: (§1)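 Male Japanese white rabbits fed 1% cholesterol diet for 3 months received compound once orally at 300 mg/kg in water. Ear-vein blood: cholesterol by enzymatic method, beta-lipoprotein by colorimetry; values are change from predose at 3 or 6 h.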

For another data set, the system named is level of blood sugar. In words: Anti-hyperglycemia activity (reduction of blood sugar level). It counts as in vivo, rat (Wistar, streptozotocin). The conditions noted are these: oral, 300 mg/kg. In outline:
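Streptozotocin-diabetic Wistar rats (60 mg/kg i.p., relapsed hyperglycemia after insulin) given compounds orally at 300 mg/kg in distilled water. Blood sugar measured in samples taken 3 and 6 h post-dose.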

Another data set relates to ICR-JCL mice. Nature of the data set: in vivo. The conditions noted are these: 7 days observation, 10080 min.
For the next data set, the system named is total cholesterol. Nature of the data set: Anti-hyperlipemia activity, total cholesterol in blood. It is filed as in vivo, rabbit (Japanese white male). The conditions noted are these: oral, 300 mg/kg once, 300 mg/kg; for Reduction of cholesterol level after 3 hrs.: negative = raising. The method, boiled down: as §1
Data set [1] concerns pseudo-escaping reaction to tail pressure. In words: Analgetic activity against mechanical stimulation of pressure. It counts as in vivo, mouse (ICR female). As to conditions: oral, 1000 mg/kg.
The subject of another data set is Sarcoma-180. In words: Anti-tumour activity against Sarcoma-180. As to conditions: oral, 500 mg/kg/time, 10 times every other day; tumour weight on 25th day; 500 mg/kg. It is filed as in vivo, mouse (ICR-JCL). The method, boiled down:
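ICR-JCL mice were given 1×10^6 Sarcoma-180 cells axillary; from 24 hours, compounds in saline were dosed orally at 500 mg/kg/time, 10 times every other day. Tumour nodes were weighed on day 25; inhibition rate = (1-T/C)×100(%) versus untreated tumour-bearing mice.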

The test system of another data set is exudation. In words: Anti-exudation activity (air pouch, croton oil). It counts as in vivo, rat. As to conditions: oral, 1000 mg/kg/day, 5 days. The method, boiled down:
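Rats, 6 per group, given subcutaneous dorsal air pouch injected with 0.5 ml sesame oil containing 1% croton oil. Compounds dosed orally in distilled water at 1000 mg/kg/day for five days; pouch exudate volume measured on day 6 and expressed as percent inhibition of exudation.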

A further data set concerns cotton pellet granuloma. In words: Anti-granuloma activity (cotton pellet). It counts as in vivo, rat. As to conditions: oral, 1000 mg/kg/day, 7 days. In outline: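 Rats (6/group) implanted dorsally with two 30±1 mg cotton pellets; compounds given orally in distilled water at 1000 mg/kg/day once daily for 7 days. Granuloma excised on day 8 and dry weight measured; value is % inhibition of granuloma proliferation.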

The subject of a further data set is blood pressure. Nature of the data set: Anti-hypertension activity (reduction of blood pressure). It counts as in vivo, rat (spontaneous hypertension). The conditions noted are these: oral, 300 mg/kg. The method, boiled down:
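Spontaneously hypertensive rats dosed orally at 300 mg/kg in distilled water. Blood pressure measured at 3 and 6 h. Activity taken as change from the value just before dosing.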

Another data set deals with acetic acid writhing. Nature of the data set: Analgetic activity against chemical stimulation of acetic acid (writhing). It is filed as in vivo, mouse (ICR female). The conditions noted are these: oral, 1000 mg/kg, 30 min before 0.6% acetic acid. The text has this: Rate of inhibition (I.R.) (%)=(1-T/C)×100
T represents the average number of writhing of the group of mice administered with the present compound and injected with acetic acid, and C represents the average number of writhing of the group of mice only injected with acetic acid (control).
Background: Writhing tests count abdominal constrictions after an irritant is injected.

Data set [2] deals with Bacillus subtilis strain M45. Nature of the data set: Mutagenicity, Rec-Assay, recombination repair deficient strain. The conditions noted are these: 10 microgram/disk. As for the experimental part:
(§2) Then, a solution or suspension of each of the present compounds was absorbed on a round sheet of paper (disk) of 8 mm in diameter in an amount of 0.04 ml and the disk was placed on the culture plate so as to cover the starting points of the streaks of the micro-organism's culture.

Data set [3] has as its system Bacillus subtilis strain H17. Nature of the data set: Mutagenicity, Rec-Assay, recombination repair retaining strain. As to conditions: 10 microgram/disk. As for the experimental part: as §2
Data set [4] has as its system foot pad reaction to sheep erythrocyte. Nature of the data set: Delayed-type intracutaneous reaction (foot pad reaction, cellular immunity). It counts as in vivo, mouse (ICR-JCL). As to conditions: same dose (250 mg/kg/day) intraperitoneally. As for the experimental part:
In order to know the influence of the present compounds on the cellular immunity, a foot pad reaction test was carried out by using ICR-JCL mice as experimental animals and sheep erythrocyte as an antigen as follows:
Sheep erythrocytes were suspended in a physiological saline solution at a concentration of 10% by volume and 0.2 ml of the suspension was injected into the caudal vein of each mouse for the primary sensitization, and after 7 days, a 40% by volume suspension of the erythrocytes in physiological saline solution was injected into the foot pad of the mouse for the challenge. The thickness of the injected foot pad was measured on the next day. One of the present compounds was administered intraperitoneally at dose of 250 mg/kg/day once a day for continued 5 days around the day of the first sensitization as a center.

With `C[C@@H]1OC(Nc2ccc(CC(=O)O)cc2)[C@H](O)[C@H](O)[C@H]1O` (stereo partly drawn) [Compound 28, sodium p-aminophenylacetate-N-L-rhamnoside], the “I.R. against carrageenin edema” value with carrageenin edema was determined as 8.3%. For the same molecule, in the data set with beta-lipoprotein, the “Reduction of beta-lipoprotein level after 3 hrs.” value was found to be 101 mg/dL and the “Reduction of beta-lipoprotein level after 6 hrs.” value was 100 mg/dL. In the data set with level of blood sugar, the “Reduced level of blood sugar after 3 hrs.” value was 92 mg/dL and the “Reduced level of blood sugar after 6 hrs.” value amounted to 77 mg/dL. The “LD50, acute oral toxicity” value with ICR-JCL mice is 11100 mg/kg. In the data set with total cholesterol, the “Reduction of cholesterol level after 3 hrs.” value worked out at 5 mg/dL and the “Reduction of cholesterol level after 6 hrs.” value is 25 mg/dL. In data set [1], this molecule displayed a Pseudo-escapting reaction pressure of 87 mmHg and a Pseudo-escapting reaction time of 38 s. In addition, the “Antitumour activity, inhibiting rate (I.R.)” value in the data set on Sarcoma-180 came out at 45%. In the data set on exudation, this molecule had an I.R. against exudation of 6.1%. Besides, the “I.R. against cotton pellet edema” value in the data set with cotton pellet granuloma is 20.6%. In the data set with blood pressure, the “Reduced level of blood pressure after 3 hrs.” value turned out to be 25 mm Hg and the “Reduced level of blood pressure after 6 hrs.” value is given as 19 mm Hg. Further, in the data set with acetic acid writhing, the I.R. of writhing came to 25%.

As for `C[C@@H]1OC(Nc2ccc(CC(=O)O)cc2)[C@H](O)[C@H](O)[C@H]1O` (stereo partly drawn) [Compound 29, potassium p-aminophenylacetate-N-L-rhamnoside], the “I.R. against carrageenin edema” value in the data set on carrageenin edema turned out to be 9.3%. Besides, in the data set on beta-lipoprotein, the “Reduction of beta-lipoprotein level after 3 hrs.” value came to 95 mg/dL and the “Reduction of beta-lipoprotein level after 6 hrs.” value amounted to 121 mg/dL. For the same molecule, in the data set on level of blood sugar, the “Reduced level of blood sugar after 3 hrs.” value came out at 88 mg/dL and the “Reduced level of blood sugar after 6 hrs.” value was 71 mg/dL. Moreover, the “LD50, acute oral toxicity” value in the data set on ICR-JCL mice amounted to 10000 mg/kg. Also, in the data set on total cholesterol, the “Reduction of cholesterol level after 3 hrs.” value amounted to 3 mg/dL and the “Reduction of cholesterol level after 6 hrs.” value turned out to be 40 mg/dL. In data set [1], this molecule yielded a Pseudo-escapting reaction pressure of 84 mmHg and a Pseudo-escapting reaction time of 41 s. The “Antitumour activity, inhibiting rate (I.R.)” value in the data set with Sarcoma-180 was found to be 38%. The I.R. against exudation with exudation is 5.8%. The “I.R. against cotton pellet edema” value in the data set with cotton pellet granuloma is recorded as 15.9%. In the data set with blood pressure, the “Reduced level of blood pressure after 3 hrs.” value was 21 mm Hg and the “Reduced level of blood pressure after 6 hrs.” value was found to be 17 mm Hg. In addition, the I.R. of writhing with acetic acid writhing worked out at 26%.

For `NC[C@H]1O[C@H](O[C@H]2[C@H](O)[C@@H](O[C@H]3O[C@H](CO)[C@@H](O)[C@H](N)[C@H]3O)[C@H](N)C[C@@H]2N)[C@H](O)[C@@H](O)[C@@H]1O` [Kanamycin], the “Length of growth inhibition M45” value in data set [2] is recorded as 6 mm. The “Difference of growth inhibition (M45, H17)” value in [2] (M45 minus H17) amounted to 3 mm. In [3], the “Length of growth inhibition H17” value is listed as 3 mm.

As for `CO[C@@]12[C@H](COC(N)=O)C3=C(C(=O)C(C)=C(N)C3=O)N1C[C@@H]1N[C@@H]12` [Mitomycin C, mitomycin C], the “mortality in foot pad reaction test” value in data set [4] is given as “died”.
